Results reported in patent US20180306775A1, “Portable Sampling Device and Method for Sampling Drug Substances From Exhaled Breath” (Sensa Bues AB, priority 2011, published 2018).

Tests used:
Assay type in all cases: in vivo, human
[1] = Sampling of methadone from exhaled breath using electrostatic filter membrane (250 g/m2 non-woven layer, two carriers); details: for Methadone Range: range among subjects
Method: (§1) Sampling of drugs of abuse from exhaled human breath using filter membrane.
The tests were performed at 4 different occasions.

[2] = Sampling of methadone in exhaled breath with constructed sampler (tubular section with baffles), two filter thicknesses; details: for Constructed sampler Methadone Range: n=5
From the text: as §1
The subject exhales through the tubular section comprising baffles to trapping large particles and saliva.

[3] = Pre-study: sampling of methadone in breath using variable densities of the electrostatic filter membrane; details: exhaled breath, n=5; for Methadone Range: range among subjects
From the text: as §1
Type is the density of the non-woven layer at each test, the other headlines are the same as for table 1.

[4] = filter diameter 32 mm, sampling time 1 min, n=6
[5] = filter diameter 32 mm, sampling time 3 min, n=5 (one of 4 occasions)
[6] = filter diameter 32 mm, sampling time 3 min, n=6 (one of 4 occasions)
[7] = filter diameter 47 mm, sampling time 3 min, n=6

CCC(=O)C(CC(C)N(C)C)(c1ccccc1)c1ccccc1 (stereo not drawn) [Methadone, methadone]
Methadone pg/min mean ± SD [1, 4]: 204 ± 116 pg/min
Methadone Range [1, 4]: 21 to 326 pg/min
Methadone pg/min mean ± SD [1, 5]: 112 ± 89 pg/min
Methadone pg/min mean ± SD [1, 6]: 92 ± 62 pg/min
Methadone Range [1, 5]: 47 to 266 pg/min
Methadone Range [1, 6]: 28 to 199 pg/min
Methadone pg/min mean ± SD [1, 7]: 86 ± 52 pg/min
Methadone Range [1, 7]: 18 to 168 pg/min
Constructed sampler Methadone pg/min mean ± SD ([2]; filter thickness 1, n=5): 40 ± 27 pg/min
Constructed sampler Methadone Range ([2]; filter thickness 1, range among subjects): 12 to 85 pg/min
Constructed sampler Methadone pg/min mean ± SD ([2]; filter thickness 2, n=5): 42 ± 28 pg/min
Constructed sampler Methadone Range ([2]; filter thickness 2, range among subjects): 17 to 90 pg/min
Methadone Range ([3]; filter type 150 g/m2): 24 to 216 pg/min
Methadone Range ([3]; filter type 250 g/m2): 19 to 231 pg/min
Methadone Range ([3]; filter type 300 g/m2): 20 to 287 pg/min
Methadone pg/min mean ± SD ([3]; filter type (density of non-woven layer) 150 g/m2): 74.4 ± 80.4 pg/min
Methadone pg/min mean ± SD ([3]; filter type (density of non-woven layer) 250 g/m2): 71.0 ± 90.1 pg/min
Methadone pg/min mean ± SD ([3]; filter type (density of non-woven layer) 300 g/m2): 91.8 ± 110 pg/min
